# Active and inactive are the calls of the source.
# What was measured:
# Streptococcus = assay: Group A Streptococcus viability loss, dose response, counter-screen for streptokinase expression inhibitor project, luminescence, BacTiterGlo (AID 1915); assay type: functional, organism-based;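 note: potency for reduction of bacterial viability or growth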
# [1] = NIH-3T3 fibroblast cytotoxicity, dose response, cytotoxicity control, cell-based, fluorescence, Alamar Blue, secondary assay (AID 2327); assay type: functional;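 note: NIH-3T3 mouse fibroblasts cultured with fluconazole at 8 µg/mL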
# Streptokinase A = target: T1, Streptokinase A (Streptococcus pyogenes serotype M1, UniProt P10520); assay: S. pyogenes streptokinase expression inhibitors, potency, dose response, plasminogen activation absorbance, OD405 (AID 1914); assay type: functional, Streptococcus pyogenes M1 GAS;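 note: secreted streptokinase activity via plasminogen activation per viability signal from cell pellet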
# T1 sequence (P10520 whole entry): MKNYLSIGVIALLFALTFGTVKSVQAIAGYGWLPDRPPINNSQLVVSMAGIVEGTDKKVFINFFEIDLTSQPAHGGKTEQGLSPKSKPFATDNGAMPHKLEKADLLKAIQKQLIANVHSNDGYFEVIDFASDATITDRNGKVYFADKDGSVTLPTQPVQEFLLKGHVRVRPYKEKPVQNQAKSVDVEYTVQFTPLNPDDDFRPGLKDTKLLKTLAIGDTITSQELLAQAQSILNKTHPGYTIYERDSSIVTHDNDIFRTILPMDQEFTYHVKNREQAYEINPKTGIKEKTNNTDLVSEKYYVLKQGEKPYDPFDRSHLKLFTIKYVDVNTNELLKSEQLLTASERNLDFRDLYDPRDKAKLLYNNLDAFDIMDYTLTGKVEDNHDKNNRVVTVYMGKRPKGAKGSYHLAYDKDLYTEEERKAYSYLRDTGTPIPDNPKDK
# [2] = target: Serine/threonine-protein phosphatase (Candida dubliniensis (strain CD36 / CBS 7987 / NCPF 3949 / NRRLY-17841) (Yeast), UniProt B9W6M3); assay: calcineurin pathway inhibitors in yeast reporter, dose response, S. cerevisiae, CDRE-lacZ, luminescence, secondary (AID 2388); assay type: functional, cell-based;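 note: yeast reporter cells carrying a calcineurin-responsive lacZ construct stimulated with calcium chloride; luminescent beta-galactosidase reporter signal in whole cells rather than isolated phosphatase activity; potency for inhibition where a drop in reporter signal means calcineurin blockade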
# [3] = cytotoxicity toward NIH3T3 fibroblasts, dose response, counter-screen, cell-based, ATP luminescence, mouse fibroblasts (AID 2010); assay type: functional;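 note: cells exposed to compound for about 90 hours before reading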
# [4] = test system: Streptococcus sp. 'group A'; assay: growth inhibition of control SK(-) GAS strain, dose response, counter-screen for streptokinase expression inhibitor project, luminescence, kanamycin, BacTiterGlo, confirmation (AID 1900); assay type: functional, organism-based
# [5] = target: ATP-dependent molecular chaperone HSP82 (Candida albicans (strain WO-1) (Yeast), UniProt C4YTQ8); assay: loss of DOC-induced GRE-beta-galactosidase reporter signal, dose response, Hsp90 inhibitor project, S. cerevisiae, luminescence (AID 2400); assay type: functional, cell-based;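 note: beta-galactosidase luminescence from glucocorticoid response element reporter as proxy for Hsp90 function; inhibitor potency where signal loss means Hsp90 inhibition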
# [6] = inhibitors of intracellular T. cruzi replication, confirmation, NIH3T3 host cells, beta-gal luminescence (AID 2044); assay type: functional, cell-based;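 note: intracellular parasites grown in NIH/3T3 mouse fibroblasts as host cells; luminescent beta-galactosidase reporter signal from transgenic T. cruzi replicating inside host cells; inhibitors lower the luminescence signal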
# [7] = C. albicans growth with fluconazole, confirmation, fluorescence, retest (AID 2467); assay type: functional, cell-based
# INS1 = assay: beta cell apoptosis inhibitors, cytokine rescue, dose response, luminescence, retest (AID 449756); assay type: functional, cell-based; conditions: Rattus norvegicus;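 note: cell death triggered by IL-1 beta plus TNF-alpha plus IFN-gamma mixture; protective hits raise ATP signal compared with cytokine alone wells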
# Cytochrome P450 2C9 = Cytochrome P450 2C9 (Homo sapiens, UniProt P11712)
# CAAX prenyl protease 2 [8] = target: CAAX prenyl protease 2 (Homo sapiens, UniProt Q9Y256); assay: human Rce1 protease inhibitors, dose response, biochemical, yeast membranes, quenched-peptide fluorescence, cherry-pick (AID 588849)
# Trypsin = Trypsin (Sus scrofa, UniProt P00761); assay: porcine trypsin inhibitors, dose response, selectivity assay for Rce1 protease inhibitor project, biochemical, quenched peptide fluorescence, cherry-pick (AID 488789)
# [9] = target: Oxysterols receptor LXR-beta (Homo sapiens, UniProt P55055); assay type: functional, cell-based;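 note: Cell-based luminescence dose-response assay of agonist activity at LXR, run as a confirmatory counterscreen to a daf-12 agonist screen; HEK293 cells with Gal4-LXR fusion and GAL4-driven luciferase reporter; agonist potency from rising luciferase signal of a Gal4-LXR reporter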
# [10] = target: T2, Nuclear receptor subfamily 0 group B member 1 (Homo sapiens, UniProt P51843); assay: Luminescence-based cell-based high throughput dose response assay for inhibitors of the orphan nuclear receptor subfamily 0, group B, member 1 (DAX1; NR0B1). [Related pubchem assays (depositor defined):AID504766, AID504790]; assay type: functional
# T2 sequence (P51843 whole entry): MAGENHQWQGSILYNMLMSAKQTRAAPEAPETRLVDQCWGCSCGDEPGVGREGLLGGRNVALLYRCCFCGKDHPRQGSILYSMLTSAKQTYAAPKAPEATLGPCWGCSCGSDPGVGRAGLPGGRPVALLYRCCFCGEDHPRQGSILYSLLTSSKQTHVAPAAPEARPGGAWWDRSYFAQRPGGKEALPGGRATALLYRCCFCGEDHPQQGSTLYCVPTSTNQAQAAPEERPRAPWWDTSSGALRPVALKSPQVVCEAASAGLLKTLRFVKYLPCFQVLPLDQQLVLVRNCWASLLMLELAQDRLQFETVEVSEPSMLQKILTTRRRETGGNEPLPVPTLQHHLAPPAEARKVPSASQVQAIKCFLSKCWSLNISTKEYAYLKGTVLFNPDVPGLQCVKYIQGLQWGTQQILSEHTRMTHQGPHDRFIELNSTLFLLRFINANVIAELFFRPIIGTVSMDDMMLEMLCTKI
# HEK293 = assay: cells; assay type: functional, cell-based; conditions: Homo sapiens
# CHO = assay: cytotoxicity in TLR9-MyD88 CHO cells, dose response, cytotoxicity control for TLR9-MyD88 binding inhibitor project, cell-based, luminescence (AID 588339); assay type: functional, hamster; conditions: Cricetulus griseus;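 note: CHO cells stably coexpressing TLR9 and MyD88 fusions from primary screen; compound exposure lasted 48 hours before viability readout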
# Beta Lactamase = Beta Lactamase (Pseudomonas aeruginosa, UniProt Q932Y6); assay: beta-lactamase reporter inhibitor potency, dose response, artefact control for TLR9-MyD88 binding inhibitor project, BLA reporter cells, FRET fluorescence (AID 588341); assay type: cell-based;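 note: cell based assay in CHO-K1 cells stably expressing beta-lactamase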
# [11] = target: T3, RNA-binding protein pos-1 (Caenorhabditis elegans, UniProt G5EF15); assay: inhibitors of POS-1/mex-3 RNA binding, dose response, biochemical, fluorescence polarization (AID 1964);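 note: purified POS-1 fused to maltose binding protein made in E. coli; potency of compounds blocking POS-1 binding to fluorescent RNA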
# T3 sequence (G5EF15 whole entry): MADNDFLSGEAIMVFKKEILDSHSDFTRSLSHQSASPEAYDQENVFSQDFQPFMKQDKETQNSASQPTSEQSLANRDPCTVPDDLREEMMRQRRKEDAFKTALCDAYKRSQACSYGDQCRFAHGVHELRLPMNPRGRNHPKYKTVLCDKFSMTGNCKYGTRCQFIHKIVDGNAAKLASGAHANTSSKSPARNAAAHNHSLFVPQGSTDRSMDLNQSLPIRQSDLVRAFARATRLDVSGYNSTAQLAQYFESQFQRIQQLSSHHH
# [12] = target: T4, Corticotropin-releasing factor receptor 2/Corticotropin-releasing factor-binding protein (Homo sapiens, UniProt P24387+Q13324); assay: activators of CRF receptor 2 with binding protein – uHTS hits, confirmation (AID 602473); assay type: functional; conditions: read-out: EC50_Mean
# T4 sequence (Q13324 whole entry): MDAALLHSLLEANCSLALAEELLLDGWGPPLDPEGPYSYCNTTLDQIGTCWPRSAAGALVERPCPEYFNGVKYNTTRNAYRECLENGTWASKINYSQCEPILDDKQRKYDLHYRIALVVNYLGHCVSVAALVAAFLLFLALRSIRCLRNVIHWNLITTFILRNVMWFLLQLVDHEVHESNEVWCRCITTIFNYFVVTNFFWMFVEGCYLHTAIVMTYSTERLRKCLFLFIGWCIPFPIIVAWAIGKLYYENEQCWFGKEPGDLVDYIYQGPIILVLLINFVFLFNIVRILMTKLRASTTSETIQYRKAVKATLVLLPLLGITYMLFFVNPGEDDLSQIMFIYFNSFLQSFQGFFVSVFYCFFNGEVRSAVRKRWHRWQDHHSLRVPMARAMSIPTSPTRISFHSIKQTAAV
# T4 sequence (P24387 whole entry): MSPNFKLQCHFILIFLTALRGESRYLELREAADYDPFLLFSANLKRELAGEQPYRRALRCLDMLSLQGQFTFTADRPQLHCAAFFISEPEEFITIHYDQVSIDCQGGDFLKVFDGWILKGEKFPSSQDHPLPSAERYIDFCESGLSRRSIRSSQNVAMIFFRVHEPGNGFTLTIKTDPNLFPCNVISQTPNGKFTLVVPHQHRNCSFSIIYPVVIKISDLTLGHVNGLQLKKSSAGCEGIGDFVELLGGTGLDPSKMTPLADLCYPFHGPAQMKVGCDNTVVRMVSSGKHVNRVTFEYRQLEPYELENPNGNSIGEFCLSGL
# [13] = target: T5, Zinc finger protein mex-5 (Caenorhabditis elegans, UniProt Q9XUB2); assay: MEX-5/TCR-2 RNA interaction inhibitors, dose response, biochemical, C. elegans, fluorescence polarization (AID 1960)
# T5 sequence (Q9XUB2 whole entry): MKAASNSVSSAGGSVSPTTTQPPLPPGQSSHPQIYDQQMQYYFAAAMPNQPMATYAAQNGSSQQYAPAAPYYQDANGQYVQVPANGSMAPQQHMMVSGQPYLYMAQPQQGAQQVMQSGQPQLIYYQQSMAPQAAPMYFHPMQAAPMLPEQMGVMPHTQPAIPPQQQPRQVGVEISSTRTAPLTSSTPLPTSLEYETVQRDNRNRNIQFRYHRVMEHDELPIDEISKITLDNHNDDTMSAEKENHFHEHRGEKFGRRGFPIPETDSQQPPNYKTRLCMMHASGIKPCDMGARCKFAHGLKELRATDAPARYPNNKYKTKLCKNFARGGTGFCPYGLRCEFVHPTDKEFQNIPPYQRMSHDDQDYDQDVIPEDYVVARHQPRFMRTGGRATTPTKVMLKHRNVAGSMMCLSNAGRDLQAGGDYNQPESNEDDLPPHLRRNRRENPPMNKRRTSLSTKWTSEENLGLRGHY
# [14] = target: Voltage-gated inwardly rectifying potassium channel KCNH2 (Homo sapiens, UniProt Q12809); conditions: Potency;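 note: confirmatory quantitative high-throughput screen measuring inhibition of hERG channel activity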
# [15] = target: Apoptotic protease-activating factor 1 (Homo sapiens, UniProt O14727); assay type: functional
# CAAX prenyl protease 2 [16] = target: CAAX prenyl protease 2 (Saccharomyces cerevisiae S288c, UniProt Q03530); assay type: biochemical
# [17] = target: T6, Type-1 angiotensin II receptor (Homo sapiens, UniProt P30556); assay: AT1 receptor antagonists, dose response, selectivity assay for APJ receptor antagonist project, cell-based, uHTS hits (AID 463214); assay type: functional;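 note: antagonist potency against angiotensin II stimulated AT1 response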
# T6 sequence (P30556 whole entry): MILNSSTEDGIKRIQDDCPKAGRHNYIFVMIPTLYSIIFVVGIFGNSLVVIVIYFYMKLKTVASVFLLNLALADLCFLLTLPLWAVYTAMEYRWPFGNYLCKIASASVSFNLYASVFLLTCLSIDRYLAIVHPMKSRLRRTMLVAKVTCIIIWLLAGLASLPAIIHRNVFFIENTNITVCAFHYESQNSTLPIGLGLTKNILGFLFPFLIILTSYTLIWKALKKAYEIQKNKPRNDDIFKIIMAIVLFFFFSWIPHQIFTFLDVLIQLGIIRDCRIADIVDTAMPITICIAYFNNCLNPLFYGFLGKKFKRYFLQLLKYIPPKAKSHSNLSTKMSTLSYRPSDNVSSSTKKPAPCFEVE
# Beta-galactosidase = Beta-galactosidase (Escherichia coli, UniProt Q8VNN2); assay: PubChem AID 485352; assay type: functional
# Cytochrome P450 1A2 = target: T7, Cytochrome P450 1A2 (Homo sapiens, UniProt P05177);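 note: PubChem cytochrome P450 panel assay, CYP1A2 panel member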
# T7 sequence (P05177 whole entry): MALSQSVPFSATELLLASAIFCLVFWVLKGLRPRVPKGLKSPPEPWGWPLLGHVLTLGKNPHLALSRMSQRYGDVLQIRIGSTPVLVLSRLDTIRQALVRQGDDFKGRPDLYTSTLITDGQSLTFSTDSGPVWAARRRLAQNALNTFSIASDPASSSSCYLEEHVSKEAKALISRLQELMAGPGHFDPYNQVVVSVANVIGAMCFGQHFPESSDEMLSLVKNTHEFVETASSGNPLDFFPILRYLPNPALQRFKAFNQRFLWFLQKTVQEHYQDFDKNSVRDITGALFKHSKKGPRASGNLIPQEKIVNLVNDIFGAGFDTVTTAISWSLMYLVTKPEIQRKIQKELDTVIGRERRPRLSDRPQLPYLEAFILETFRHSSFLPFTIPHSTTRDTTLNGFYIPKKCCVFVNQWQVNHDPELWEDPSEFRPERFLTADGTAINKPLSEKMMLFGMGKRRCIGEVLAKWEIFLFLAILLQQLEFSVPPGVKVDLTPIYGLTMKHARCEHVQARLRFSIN
# Beta-galactosidase, sequence (Q8VNN2 whole entry): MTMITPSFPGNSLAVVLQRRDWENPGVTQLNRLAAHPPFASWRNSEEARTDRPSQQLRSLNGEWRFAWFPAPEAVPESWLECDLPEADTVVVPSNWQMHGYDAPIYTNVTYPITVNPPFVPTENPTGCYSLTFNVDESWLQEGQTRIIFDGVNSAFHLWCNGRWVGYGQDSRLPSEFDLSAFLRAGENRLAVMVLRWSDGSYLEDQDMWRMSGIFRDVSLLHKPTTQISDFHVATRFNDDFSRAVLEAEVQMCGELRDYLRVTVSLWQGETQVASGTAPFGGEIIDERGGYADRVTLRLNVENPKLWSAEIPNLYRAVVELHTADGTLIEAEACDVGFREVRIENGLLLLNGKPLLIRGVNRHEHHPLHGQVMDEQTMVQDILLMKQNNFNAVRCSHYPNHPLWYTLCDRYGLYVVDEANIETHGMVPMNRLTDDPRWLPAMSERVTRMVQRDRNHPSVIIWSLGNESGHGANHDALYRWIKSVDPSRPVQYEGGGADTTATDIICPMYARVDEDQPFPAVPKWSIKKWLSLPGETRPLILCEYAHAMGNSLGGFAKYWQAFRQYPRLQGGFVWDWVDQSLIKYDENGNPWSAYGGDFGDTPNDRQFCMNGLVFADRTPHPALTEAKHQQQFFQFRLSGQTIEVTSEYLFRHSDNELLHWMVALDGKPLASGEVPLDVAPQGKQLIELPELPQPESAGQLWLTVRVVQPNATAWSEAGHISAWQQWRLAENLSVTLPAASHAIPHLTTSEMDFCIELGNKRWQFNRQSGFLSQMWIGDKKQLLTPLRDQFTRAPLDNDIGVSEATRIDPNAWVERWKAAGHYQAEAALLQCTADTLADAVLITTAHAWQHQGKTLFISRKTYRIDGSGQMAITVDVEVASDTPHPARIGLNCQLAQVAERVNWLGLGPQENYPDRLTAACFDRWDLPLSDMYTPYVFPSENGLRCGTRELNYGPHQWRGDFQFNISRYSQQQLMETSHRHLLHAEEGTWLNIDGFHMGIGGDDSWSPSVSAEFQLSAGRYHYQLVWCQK
# CAAX prenyl protease 2 (Homo sapiens, UniProt Q9Y256), sequence (Q9Y256 whole entry): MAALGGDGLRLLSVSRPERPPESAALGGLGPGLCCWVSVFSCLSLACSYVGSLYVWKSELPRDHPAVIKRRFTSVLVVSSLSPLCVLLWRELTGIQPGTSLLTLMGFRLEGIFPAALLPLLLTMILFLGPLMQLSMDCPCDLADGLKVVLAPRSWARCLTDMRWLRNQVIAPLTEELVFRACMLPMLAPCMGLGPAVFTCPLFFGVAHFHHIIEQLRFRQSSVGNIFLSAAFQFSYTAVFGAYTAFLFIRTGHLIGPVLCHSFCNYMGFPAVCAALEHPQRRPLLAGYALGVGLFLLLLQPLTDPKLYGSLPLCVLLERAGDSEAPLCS
# Voltage-gated inwardly rectifying potassium channel KCNH2, sequence (Q12809 whole entry): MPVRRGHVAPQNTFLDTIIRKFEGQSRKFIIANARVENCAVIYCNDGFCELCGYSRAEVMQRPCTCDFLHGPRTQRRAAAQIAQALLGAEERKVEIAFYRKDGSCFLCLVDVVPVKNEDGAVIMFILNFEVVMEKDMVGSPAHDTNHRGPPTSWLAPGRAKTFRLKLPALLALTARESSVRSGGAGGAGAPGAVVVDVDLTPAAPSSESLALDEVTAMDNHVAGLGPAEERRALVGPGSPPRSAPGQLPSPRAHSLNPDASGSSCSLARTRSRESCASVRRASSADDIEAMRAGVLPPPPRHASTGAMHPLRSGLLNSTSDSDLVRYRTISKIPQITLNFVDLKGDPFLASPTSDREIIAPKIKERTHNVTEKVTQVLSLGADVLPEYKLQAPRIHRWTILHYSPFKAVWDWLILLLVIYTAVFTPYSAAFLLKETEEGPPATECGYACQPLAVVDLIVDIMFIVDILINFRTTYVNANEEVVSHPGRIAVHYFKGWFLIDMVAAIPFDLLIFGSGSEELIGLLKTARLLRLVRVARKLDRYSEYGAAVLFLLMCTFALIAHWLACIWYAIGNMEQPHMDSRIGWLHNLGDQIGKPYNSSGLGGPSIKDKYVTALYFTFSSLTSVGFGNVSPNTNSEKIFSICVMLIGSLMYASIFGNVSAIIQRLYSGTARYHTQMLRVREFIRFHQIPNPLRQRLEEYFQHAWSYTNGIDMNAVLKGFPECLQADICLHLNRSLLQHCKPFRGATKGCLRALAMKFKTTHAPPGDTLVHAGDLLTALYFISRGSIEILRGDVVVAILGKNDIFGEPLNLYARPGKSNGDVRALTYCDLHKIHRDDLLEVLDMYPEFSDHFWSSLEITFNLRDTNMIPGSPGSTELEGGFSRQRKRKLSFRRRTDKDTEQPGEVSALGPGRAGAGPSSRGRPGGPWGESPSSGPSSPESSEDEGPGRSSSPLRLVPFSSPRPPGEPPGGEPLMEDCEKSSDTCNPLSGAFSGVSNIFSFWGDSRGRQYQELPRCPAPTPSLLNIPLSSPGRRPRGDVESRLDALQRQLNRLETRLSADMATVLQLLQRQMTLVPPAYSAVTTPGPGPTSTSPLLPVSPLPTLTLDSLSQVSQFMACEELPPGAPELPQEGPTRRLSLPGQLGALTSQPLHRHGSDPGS
# Beta Lactamase, sequence (Q932Y6 whole entry, the tested form may be a part): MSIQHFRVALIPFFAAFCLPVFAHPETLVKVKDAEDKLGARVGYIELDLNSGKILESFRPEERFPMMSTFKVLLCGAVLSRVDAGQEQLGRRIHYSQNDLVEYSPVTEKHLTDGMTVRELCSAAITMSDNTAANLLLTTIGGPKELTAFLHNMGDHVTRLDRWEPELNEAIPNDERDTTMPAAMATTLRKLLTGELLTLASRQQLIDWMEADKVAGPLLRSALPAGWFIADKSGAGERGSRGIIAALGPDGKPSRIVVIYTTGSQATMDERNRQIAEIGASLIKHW
# Trypsin, sequence (P00761 whole entry, the tested form may be a part): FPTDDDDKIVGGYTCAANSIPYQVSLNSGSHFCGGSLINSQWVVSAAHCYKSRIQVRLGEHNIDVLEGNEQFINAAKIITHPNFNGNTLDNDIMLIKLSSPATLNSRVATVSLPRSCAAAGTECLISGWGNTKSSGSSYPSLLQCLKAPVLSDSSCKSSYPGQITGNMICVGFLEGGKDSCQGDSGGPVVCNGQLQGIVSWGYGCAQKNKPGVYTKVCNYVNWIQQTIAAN
# Oxysterols receptor LXR-beta, sequence (P55055 whole entry, the tested form may be a part): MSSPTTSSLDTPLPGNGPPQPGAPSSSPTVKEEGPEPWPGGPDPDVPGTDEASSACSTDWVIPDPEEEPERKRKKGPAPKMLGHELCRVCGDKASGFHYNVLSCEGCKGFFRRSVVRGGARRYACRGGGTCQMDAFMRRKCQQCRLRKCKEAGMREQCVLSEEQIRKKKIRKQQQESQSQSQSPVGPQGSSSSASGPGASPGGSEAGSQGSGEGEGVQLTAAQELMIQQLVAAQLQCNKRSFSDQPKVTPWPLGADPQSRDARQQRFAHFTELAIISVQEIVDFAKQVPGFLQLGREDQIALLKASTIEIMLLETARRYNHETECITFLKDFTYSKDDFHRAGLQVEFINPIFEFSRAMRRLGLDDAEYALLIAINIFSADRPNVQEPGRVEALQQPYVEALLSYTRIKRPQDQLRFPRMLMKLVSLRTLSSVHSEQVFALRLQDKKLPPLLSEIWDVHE
# ATP-dependent molecular chaperone HSP82, sequence (C4YTQ8 whole entry): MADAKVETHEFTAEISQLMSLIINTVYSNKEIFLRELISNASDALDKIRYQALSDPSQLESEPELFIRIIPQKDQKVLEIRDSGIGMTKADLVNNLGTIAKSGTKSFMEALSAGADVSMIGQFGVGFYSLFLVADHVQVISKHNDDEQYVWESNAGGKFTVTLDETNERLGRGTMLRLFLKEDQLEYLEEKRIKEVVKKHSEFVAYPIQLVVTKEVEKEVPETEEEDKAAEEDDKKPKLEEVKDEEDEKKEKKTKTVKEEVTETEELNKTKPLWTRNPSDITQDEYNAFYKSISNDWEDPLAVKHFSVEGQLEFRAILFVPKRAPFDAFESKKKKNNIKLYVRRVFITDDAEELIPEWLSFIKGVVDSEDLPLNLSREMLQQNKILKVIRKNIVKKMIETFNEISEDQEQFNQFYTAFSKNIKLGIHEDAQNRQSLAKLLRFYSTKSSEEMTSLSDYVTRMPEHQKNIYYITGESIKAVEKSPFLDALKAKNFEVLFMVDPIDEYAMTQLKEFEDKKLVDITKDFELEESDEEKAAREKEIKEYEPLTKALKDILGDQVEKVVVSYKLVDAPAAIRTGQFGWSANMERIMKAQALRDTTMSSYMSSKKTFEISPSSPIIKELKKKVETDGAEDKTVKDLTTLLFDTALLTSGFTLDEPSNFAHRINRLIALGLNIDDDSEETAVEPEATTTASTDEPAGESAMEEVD
# Serine/threonine-protein phosphatase, sequence (B9W6M3 whole entry): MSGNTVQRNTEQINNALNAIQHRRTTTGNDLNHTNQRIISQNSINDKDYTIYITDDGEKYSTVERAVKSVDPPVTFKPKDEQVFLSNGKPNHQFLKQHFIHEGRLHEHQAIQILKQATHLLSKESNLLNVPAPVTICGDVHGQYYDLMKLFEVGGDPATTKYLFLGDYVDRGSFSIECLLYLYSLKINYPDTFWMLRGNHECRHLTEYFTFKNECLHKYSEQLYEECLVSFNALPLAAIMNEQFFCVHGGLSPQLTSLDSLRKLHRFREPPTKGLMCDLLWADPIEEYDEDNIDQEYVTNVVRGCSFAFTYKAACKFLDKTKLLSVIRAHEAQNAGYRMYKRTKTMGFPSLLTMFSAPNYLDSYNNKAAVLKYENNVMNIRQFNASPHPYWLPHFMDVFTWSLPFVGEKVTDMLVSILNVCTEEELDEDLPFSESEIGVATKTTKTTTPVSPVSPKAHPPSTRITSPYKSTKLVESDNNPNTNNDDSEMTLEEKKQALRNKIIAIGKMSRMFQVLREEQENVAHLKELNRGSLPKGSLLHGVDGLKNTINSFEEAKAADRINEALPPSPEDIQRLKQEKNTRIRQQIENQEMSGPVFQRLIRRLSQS
smiles,measurement,setting,value
Nc1nonc1-n1nnc(C(=O)N/N=C/c2cc(Br)ccc2O)c1CNc1ccccc1,EC50,Streptococcus,3.23 µM (active)
same,EC50,[1],43.8 µM (inconclusive)
same,EC50,Streptokinase A,> 150 µM (not active)
same,EC50,[2],> 180 µM (inactive)
same,EC50,[3],5.03 µM (active)
same,EC50,[4],0.392 µM (active)
same,EC50,[5],22.6 µM (active)
same,EC50,[6],1.84 µM (active)
same,EC50,[7],0.178 µM (active)
same,AC50,INS1,2.52 µM (active)
O=C1CCCN1CC(O)CS(=O)(=O)c1ccccc1 (centres undefined),AC50,Cytochrome P450 2C9,inconclusive
same,AC50,CAAX prenyl protease 2 [8],17.7 µM (active)
same,AC50,Trypsin,1.72 µM (active)
Oc1ccccc1-c1cc(-c2ccc(F)cc2)[nH]n1,EC50,[9],> 67.6 µM (inactive)
same,IC50,[10],> 67.5 µM (inactive)
same,EC50,cells,> 67.6 µM (inactive)
same,IC50,HEK293,> 67.5 µM (inactive)
COc1ccc(C(=O)c2sc3nc(C)cc(-c4cccs4)c3c2N)cc1OC,IC50,CHO,50.2 µM (inactive)
same,IC50,Beta Lactamase,8.85 µM (active)
same,EC50,[11],21.2 µM (active)
same,EC50,[12],8.12 µM (active)
same,EC50,[13],22.6 µM (active)
CC(C)(C=O)Cc1cc(C(C)(C)C)c(O)c(C(C)(C)C)c1,AC50,[14],35.5 µM (inconclusive)
O=C(O)c1cccc(NC2=C(N3CCOCC3)C(=O)c3ccccc3C2=O)c1,IC50,[15],14.8 µM (active)
Nc1nc(SCc2ccc([N+](=O)[O-])cc2)c2ncn([C@@H]3O[C@H](CO)[C@H](O)[C@H]3O)c2n1,AC50,[14],20 µM (inconclusive)
Cc1nc2c(ncn2-c2ccccc2)c(=O)n1NC(=O)CN1CCCC1,IC50,[10],> 67.5 µM (inactive)
same,IC50,HEK293,> 67.5 µM (inactive)
Cc1nc(-c2ccc(Cl)cc2)sc1C1(C)CC(c2ccccc2Br)=NO1 (centres undefined),AC50,CAAX prenyl protease 2 [8],> 100 µM (inactive)
same,AC50,CAAX prenyl protease 2 [16],> 100 µM (inactive)
COC(=O)c1ccc(NCC(=O)c2ccccc2)cc1,IC50,[17],13.7 µM (active)
same,EC50,Beta-galactosidase,> 40 µM (inactive)
Cc1ccc(C(=O)COC(=O)CNC(=O)Cc2ccccc2)cc1[N+](=O)[O-],AC50,Cytochrome P450 1A2,25.1 µM (inconclusive)
same,IC50,[17],> 40 µM (not active)
same,EC50,Beta-galactosidase,> 40 µM (inactive)

# From ChEMBL document CHEMBL1201862, “PubChem BioAssay data set” (2004)
